Source: ChEMBL document CHEMBL6109094, “Anti-inflammatory agents design via the fragment hybrid strategy in the discovery of compound c1 for treating ALI and UC” (Eur J Med Chem, 2025)
The source made the active and inactive calls. The rule behind the calls is not given here.

Assays:
Mus musculus [1] = assay: Anti-inflammatory activity in C57BL/6 mouse model of DSS-induced ulcerative colitis assessed as decrease in inflammatory cell infiltration in colonic tissue at 20 to 40 mg/kg, po administered for 8 days […]; format: functional, organism-based; conditions: dose 20-40 mg/kg, time 8.0 day
Mus musculus [2] = assay: Anti-inflammatory activity in C57BL/6 mouse model of LPS-induced ALI assessed as decrease in spleen weight at 20 mg/kg, po measured after 6 hrs with administered on every 12 hrs followed by LPS treatment after 30 mins post-compound treatment; format: functional, organism-based; conditions: time 6.5 hrs
Mus musculus [3] = assay: Anti-inflammatory activity in C57BL/6 mouse model of LPS-induced ALI assessed as inhibition of TNF-alpha level in serum at 20 mg/kg, po measured after 6 hrs with administered on every 12 hrs followed by LPS treatment after 30 mins post-compound treatment by ELISA; format: functional, organism-based; conditions: time 6.5 hrs
Mus musculus [4] = assay: Anti-inflammatory activity in C57BL/6 mouse model of DSS-induced ulcerative colitis assessed as colon length at 40 mg/kg, po administered for 8 days (reference value: 5.1 cm); format: functional, organism-based; conditions: time 8.0 day
Mus musculus [5] = assay: Anti-inflammatory activity in C57BL/6 mouse model of DSS-induced ulcerative colitis assessed as colon length at 100 mg/kg, po administered for 8 days (reference value: 5.1 cm); format: functional, organism-based; conditions: time 8.0 day
Mus musculus [6] = assay: Anti-inflammatory activity in C57BL/6 mouse model of LPS-induced ALI assessed as inhibition of TNF-alpha level in BALF at 20 mg/kg, po measured after 6 hrs with administered on every 12 hrs followed by LPS treatment after 30 mins post-compound treatment by ELISA; format: functional, organism-based; conditions: time 6.5 hrs
Homo sapiens = organism: Homo sapiens; assay: Inhibition of TAK1 (unknown origin) at 10 uM relative to control
[7] = Acute toxicity in C57BL/6 mouse assessed as change in pathological change in spleen at 100 to 200 mg/kg, po measured for 10 days by H and E staining based analysis; format: organism-based; conditions: in vivo, 240 h, dose 100-200 mg/kg, time 10 day
Mus musculus [8] = assay: Anti-inflammatory activity in C57BL/6 mouse model of DSS-induced ulcerative colitis assessed as decrease in DAI score at 20 to 40 mg/kg, po administered for 8 days; format: functional, organism-based; conditions: dose 20-40 mg/kg, time 8.0 day
Mus musculus [9] = assay: Anti-inflammatory activity in C57BL/6 mouse model of LPS-induced ALI assessed as decrease in inflammatory cell infiltration in lung tissue at 20 mg/kg, po measured after 6 hrs with administered on every 12 hrs followed by LPS treatment after 30 mins post-compound treatment by H and E/IHC staining based analysis; format: functional, organism-based; conditions: time 6.5 hrs
Mus musculus [10] = assay: Anti-inflammatory activity in C57BL/6 mouse model of DSS-induced ulcerative colitis assessed as decrease in inflammatory cell infiltration in splenic tissue at 20 to 40 mg/kg, po administered for 8 days […]; format: functional, organism-based; conditions: dose 20-40 mg/kg, time 8.0 day
Mus musculus [11] = assay: Anti-inflammatory activity in C57BL/6 mouse model of DSS-induced ulcerative colitis assessed as decrease in serum IL-6 level at 20 to 40 mg/kg, po administered for 8 days by ELISA; format: functional, organism-based; conditions: dose 20-40 mg/kg, time 8.0 day
RAW264.7 [12] = assay: Inhibition of MAPK signalling pathway in mouse RAW264.7 cells assessed as reduction in JNK phosphorylation at 2.5 uM preincubated for 2 hrs followed by LPS addition measured after 30 mins by Western blot analysis; format: cell-based; conditions: time 2.5 hrs
Mus musculus [13] = assay: Anti-inflammatory activity in C57BL/6 mouse model of LPS-induced ALI assessed as decrease in total cell count in BALF at 20 mg/kg, po measured after 6 hrs with administered on every 12 hrs followed by LPS treatment after 30 mins post-compound treatment; format: functional, organism-based; conditions: time 6.5 hrs
[14] = Half life in Sprague-Dawley rat at 1 mg/kg, iv measured for 24 hrs; format: ADME, organism-based; conditions: in vivo
[15] = Acute toxicity in C57BL/6 mouse assessed as change in pathological change in heart at 100 to 200 mg/kg, po measured for 10 days by H and E staining based analysis; format: organism-based; conditions: in vivo, 240 h, dose 100-200 mg/kg, time 10 day
[16] = Tmax in Sprague-Dawley rat at 10 mg/kg, po measured for 24 hrs; format: ADME, organism-based; conditions: in vivo
THP-1 = assay: cells; conditions: Homo sapiens
Description: Anti-inflammatory activity in human THP-1 cells assessed as inhibition of LPS-induced TNF-alpha level preincubated for 30 mins followed by LPS addition measured after 24 hrs by ELISA

Mus musculus [17] = assay: Anti-inflammatory activity in C57BL/6 mouse model of DSS-induced ulcerative colitis assessed as decrease in macrophage population in red pulp of spleen administered orally for 8 days; format: functional, organism-based; conditions: dose 20-40 mg/kg, route po, time 8.0 day
[18] = target: T1, Interleukin-1 receptor-associated kinase 4 (Homo sapiens) (UniProt Q9NWZ3); assay: Inhibition of IRAK4 (unknown origin) at 10 uM relative to control
T1 sequence (whole entry): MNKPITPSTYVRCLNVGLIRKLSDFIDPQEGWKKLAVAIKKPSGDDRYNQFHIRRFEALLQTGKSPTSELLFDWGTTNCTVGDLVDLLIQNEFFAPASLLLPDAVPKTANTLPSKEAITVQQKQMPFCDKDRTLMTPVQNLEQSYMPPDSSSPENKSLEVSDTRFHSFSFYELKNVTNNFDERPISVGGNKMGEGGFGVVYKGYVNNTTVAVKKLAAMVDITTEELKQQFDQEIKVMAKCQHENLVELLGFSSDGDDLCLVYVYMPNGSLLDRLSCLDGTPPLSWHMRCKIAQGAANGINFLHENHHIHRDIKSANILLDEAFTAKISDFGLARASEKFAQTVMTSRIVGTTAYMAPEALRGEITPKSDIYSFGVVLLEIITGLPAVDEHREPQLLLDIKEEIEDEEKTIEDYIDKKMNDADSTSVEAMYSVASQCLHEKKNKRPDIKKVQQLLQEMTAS

Mus musculus [19] = assay: Anti-inflammatory activity in C57BL/6 mouse model of LPS-induced ALI assessed as decrease in protein concentration in BALF at 20 mg/kg, po measured after 6 hrs with administered on every 12 hrs followed by LPS treatment after 30 mins post-compound treatment; format: functional, organism-based; conditions: time 6.5 hrs
[20] = Acute toxicity in C57BL/6 mouse assessed as change in pathological change in kidney at 100 to 200 mg/kg, po measured for 10 days by H and E staining based analysis; format: organism-based; conditions: in vivo, 240 h, dose 100-200 mg/kg, time 10 day
Mus musculus [21] = assay: Anti-inflammatory activity in C57BL/6 mouse model of LPS-induced ALI assessed as inhibition of IL-6 level in serum at 20 mg/kg, po measured after 6 hrs with administered on every 12 hrs followed by LPS treatment after 30 mins post-compound treatment by ELISA; format: functional, organism-based; conditions: time 6.5 hrs
RAW264.7 [22] = assay: Anti-inflammatory activity in mouse RAW264.7 cells assessed as inhibition of LPS-induced IL-6 level at 10 uM preincubated for 30 mins followed by LPS addition measured after 24 hrs by ELISA relative to control; format: functional; conditions: time 24.5 hrs
[23] = Acute toxicity in C57BL/6 mouse assessed as change in daily activities at 100 to 200 mg/kg, po measured for 10 days; format: organism-based; conditions: in vivo, 240 h, dose 100-200 mg/kg, time 10 day
RAW264.7 [24] = assay: cells; conditions: Mus musculus
Description: Anti-inflammatory activity in mouse RAW264.7 cells assessed as inhibition of LPS-induced TNF-alpha level preincubated for 30 mins followed by LPS addition measured after 24 hrs by ELISA

RAW264.7 [25] = assay: Inhibition of MAPK signalling pathway in mouse RAW264.7 cells assessed as reduction in p38 phosphorylation at 2.5 uM preincubated for 2 hrs followed by LPS addition measured after 30 mins by Western blot analysis; format: cell-based; conditions: time 2.5 hrs
[26] = Acute toxicity in C57BL/6 mouse assessed as change in pathological change in liver at 100 to 200 mg/kg, po measured for 10 days by H and E staining based analysis; format: organism-based; conditions: in vivo, 240 h, dose 100-200 mg/kg, time 10 day

Compound: COc1cc2c(O[C@H]3CC[C@@H](N)CC3)ncnc2cc1OCc1cccc(Br)c1
- Activity (Mus musculus [1]): Active
- Activity (Mus musculus [2]): Active
- inhibition (Mus musculus [3]): Active
- Activity (Mus musculus [4]): Active
- Activity (Mus musculus [5]): Active
- inhibition (Mus musculus [6]): Active
- inhibition (Homo sapiens): 4.42%
- Activity [7]: Non-toxic
- Activity (Mus musculus [8]): Active
- Activity (Mus musculus [9]): Active
- Activity (Mus musculus [10]): Active
- Activity (Mus musculus [11]): Active; Activity Was Comparable To 5-Asa
- inhibition (RAW264.7 [12]): Active
- Activity (Mus musculus [13]): Active
- half-life [14]: 1.77 h
- Activity [15]: Non-toxic
- Tmax [16]: 2 h
- IC50 (THP-1): 5.03 µM
- Activity (Mus musculus [17]): Dose-dependent-effect
- inhibition [18]: 100%
- Activity (Mus musculus [19]): Active
- Activity [20]: Non-toxic
- inhibition (Mus musculus [21]): Active
- inhibition at 10 µM (RAW264.7 [22]): 73.6%
- Activity [23]: Non-toxic
- IC50 (RAW264.7 [24]): 1.52 µM
- inhibition (RAW264.7 [25]): Active
- Activity [26]: Non-toxic
